{"source": "patent US20170218375A1", "about": "“MORPHOLINOS, MORPHOLINO UPREGULATING, AND ASSOCIATED METHODS” (University of Utah Research Foundation, priority 2011, published 2017)", "key": {"mbVEGFR2 protein": {"test_system": "mbVEGFR2 protein", "assay": "Western blot for mbVEGFR2 from mouse retinal protein after intravitreous injection", "format": "in vivo", "conditions": "2 μl of 100 ng/μl intravitreously on day 0 and day 3, western blot on day 4", "excerpt": "To administer morpholinos in vivo, morpholino conjugated with a dendrimer at the 3′ position (vivo-morpholino) was used for animal experiments. It should be understood that this technique is merely exemplary, and any other method of administration is considered to be within the present scope. […] Next, the protein level of mbVEGFR2 and sVEGFR2 in the retina and the ocular solution was examined by western blot. Consistent with real-time PCR results, moVEGFR2_MOe13 decreased mbVEGFR2 protein in the retina (FIG. 7C) and increased sVEGFR2 protein in the ocular solution (FIG. 7D).\nTo examine whether moVEGFR2_MOe13 could work in the mouse eye, on day 0 and day 3 2 μl of 100 ng/μl moVEGFR2_MOe13 or STD_MO or DPBS were injected intravitreously. On day 4, retinal total RNA was extracted with RNeasy mini kit with DNaseI treatment. sVEGFR2 and mbVEGFR2 mRNA expression were determined by the method described above. For western blot of mbVEGFR2, on day 4, retina was dissolved in RIPA buffer. For western blot of sVEGFR2, on 4 day, intraocular solution was obtained from 6 eyes by pipette. After centrifuge, supernatant was used for further experiment. For western blot, biotin-conjugated anti-VEGFR2 (BAF644, R&D Systems, Minneapolis, Minn.) was used at 1 μg/μl."}, "mbVEGFR2 mRNA": {"test_system": "mbVEGFR2 mRNA", "assay": "RT-PCR of mbVEGFR2 mRNA in mouse MS-1 cell line", "format": "cell-based", "excerpt": "(§1) Because VEGFR2_MOe13 decreases mbVEGFR2 and increases sVEGFR2, it is expected that VEGFR2_MOe13 can inhibit angiogenesis and lymphangiogenesis in vivo. To study the effect of VEGFR2_MOe13 in animal models, moVEGFR2_MOe13 was created that targets the exon13-intron13 junction of the mouse VEGFR2 gene. By RT-PCR analysis, it was found moVEGFR2_MOe13 increased sVEGFR2 mRNA and decreased mbVEGFR2 mRNA in the mouse MS-1 cell line (FIG. 7A). […] FIGS. 7(f, g) show the mean area of corneal neovascularization and lymphangiogenesis respectively (n=13-16). Risk factors (p-value) were calculated by two-tail student's t-test (*: p<0.05, **p<0.01, ***p<0.001). Error bar is ±s.e.m.\n(§2) Each morpholino oligomer was purchased from Gene Tools (Philomath, Oreg.). The sequences of each morpholino oligomer and primers for PCR are listed in supplemental Table. […] The cells were washed three times and fluorescence was detected by a FACScan Analyzer (BD Biosciences, San Jose, Calif.). […]\n(§3) cDNAs were synthesized from 400 ng total RNA using Omniscript RT kit (Qiagen, Valencia, Calif.) and Oligo-dT primer(dT20) according to the manufacturer's instructions. Real-time PCR was performed using QuantiTect SYBR Green PCR Kit (Qiagen, Valencia, Calif.) and 1 μl of cDNA. […]"}, "sVEGFR2 mRNA": {"test_system": "sVEGFR2 mRNA", "assay": "RT-PCR of sVEGFR2 mRNA in mouse MS-1 cell line", "format": "cell-based", "excerpt": "as §1, §2, §3"}}, "note": "{Dendrimer} = dendrimer conjugate (vivo-morpholino)"}
{"substance": "5′-cacccagggatgcctccatacCTAG-3′ (antisense CACCCAGGGATGCCTCCATACCTAG; all phosphorodiamidate morpholino (PMO), 3' {Dendrimer}) [moVEGFR2_MOe13, morpholino that targets the exon13-intron13 junction of the mouse VEGFR2 gene; in vivo conjugated with a dendrimer (vivo-morpholino)]", "values": [{"measurement": "mbVEGFR2 protein in the retina", "setting": "mbVEGFR2 protein", "result": "decreased"}, {"measurement": "mbVEGFR2 mRNA by RT-PCR", "setting": "mbVEGFR2 mRNA", "result": "decreased"}, {"measurement": "sVEGFR2 mRNA by RT-PCR", "setting": "sVEGFR2 mRNA", "result": "increased"}]}
